What was measured:
[1] = biological target: L-type calcium channel (Rattus norvegicus)
[2] = biological target: Corticotropin-releasing factor receptor 1 (Rattus norvegicus, UniProt P35353)
[3] = biological target: Sigma non-opioid intracellular receptor 1 (Rattus norvegicus, UniProt Q9R0C9)
[4] = biological target: Glutamate receptor ionotropic, NMDA 1 (Rattus norvegicus, UniProt P35439)
[5] = biological target: Type-2 angiotensin II receptor (Bos taurus, UniProt G5E6F7)
[6] = biological target: Muscarinic acetylcholine receptor M2 (Rattus norvegicus, UniProt P10980)
Glucocorticoid receptor = Glucocorticoid receptor (Mus musculus, UniProt P06537)
[7] = biological target: Gamma-aminobutyric acid receptor subunit alpha-1 (Rattus norvegicus, UniProt P62813)
[8] = biological target: Vasoactive intestinal polypeptide receptor 1 (Homo sapiens, UniProt P32241)
D(2) dopamine receptor = D(2) dopamine receptor (Rattus norvegicus, UniProt P61169)
[9] = biological target: Neuronal acetylcholine receptor subunit alpha-9 (Rattus norvegicus, UniProt P43144)
[10] = biological target: Gamma-aminobutyric acid (GABA) B receptor 1 (Rattus norvegicus, UniProt Q6MFX8)
[11] = biological target: Phosphodiesterase 5A (Homo sapiens)
[12] = biological target: PDGF receptor (Mus musculus)
[13] = biological target: Interleukin-1 receptor (Mus musculus)
[14] = biological target: Prostaglandin G/H synthase 1 (Rattus norvegicus, UniProt Q63921)
Phosphodiesterase 3a = Phosphodiesterase 3a (Cavia porcellus, UniProt C7DXW3)
Adenosine receptor A1 = Adenosine receptor A1 (Rattus norvegicus, UniProt P25099)
[15] = biological target: cAMP-specific 3',5'-cyclic phosphodiesterase 4D (Homo sapiens, UniProt Q08499)
[16] = biological target: Angiotensin-converting enzyme (Homo sapiens, UniProt P12821)
Caspase-3 = Caspase-3 (Homo sapiens, UniProt P42574)
[17] = biological target: Type-1 angiotensin II receptor A (Rattus norvegicus, UniProt P25095)
[18] = biological target: Endothelin-1 receptor (Rattus norvegicus) (UniProt P26684)
Histamine H1 receptor = Histamine H1 receptor (Cavia porcellus, UniProt P31389)
[19] = biological target: Cholecystokinin receptor type A (Homo sapiens) (UniProt P32238)
[20] = biological target: 5-hydroxytryptamine receptor 2A (Rattus norvegicus, UniProt P14842)
Mu-type opioid receptor = Mu-type opioid receptor (Rattus norvegicus, UniProt P33535)
[21] = biological target: Tumor necrosis factor receptor (Homo sapiens)
[22] = biological target: Insulin receptor (Rattus norvegicus) (UniProt P15127)
[23] = biological target: 5-hydroxytryptamine receptor 1B (Rattus norvegicus, UniProt P28564)
[24] = biological target: Beta-1 adrenergic receptor (Rattus norvegicus, UniProt P18090)
[25] = biological target: Nitric oxide synthase, endothelial (Homo sapiens, UniProt P29474)
[26] = biological target: Dual specificity calcium/calmodulin-dependent 3',5'-cyclic nucleotide phosphodiesterase 1A (Bos taurus, UniProt P14100)
[27] = biological target: Prostaglandin G/H synthase 2 (Ovis aries, UniProt P79208)
Substance-P receptor = Substance-P receptor (Homo sapiens, UniProt P25103)
Adenosine receptor A2a = Adenosine receptor A2a (Rattus norvegicus, UniProt P30543)
[28] = biological target: Platelet-activating factor receptor (Oryctolagus cuniculus)
B2 bradykinin receptor = B2 bradykinin receptor (Homo sapiens, UniProt P30411)
D(1A) dopamine receptor = D(1A) dopamine receptor (Rattus norvegicus, UniProt P18901)

Measured: Ki

Chain of 5-hydroxytryptamine receptor 2A (P14842 whole entry): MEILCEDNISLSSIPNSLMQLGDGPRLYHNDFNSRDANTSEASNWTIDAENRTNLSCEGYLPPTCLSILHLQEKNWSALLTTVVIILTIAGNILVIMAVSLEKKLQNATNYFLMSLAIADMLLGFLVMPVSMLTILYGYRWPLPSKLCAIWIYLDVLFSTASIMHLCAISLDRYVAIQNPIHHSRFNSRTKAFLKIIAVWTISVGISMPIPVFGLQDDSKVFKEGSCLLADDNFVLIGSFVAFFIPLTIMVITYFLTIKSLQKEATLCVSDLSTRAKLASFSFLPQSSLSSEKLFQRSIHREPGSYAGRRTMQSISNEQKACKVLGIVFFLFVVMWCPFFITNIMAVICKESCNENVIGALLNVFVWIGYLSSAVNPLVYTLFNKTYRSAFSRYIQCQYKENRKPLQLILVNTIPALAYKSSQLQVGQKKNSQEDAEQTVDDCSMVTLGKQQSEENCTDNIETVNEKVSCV
Chain of Gamma-aminobutyric acid receptor subunit alpha-1 (P62813 whole entry): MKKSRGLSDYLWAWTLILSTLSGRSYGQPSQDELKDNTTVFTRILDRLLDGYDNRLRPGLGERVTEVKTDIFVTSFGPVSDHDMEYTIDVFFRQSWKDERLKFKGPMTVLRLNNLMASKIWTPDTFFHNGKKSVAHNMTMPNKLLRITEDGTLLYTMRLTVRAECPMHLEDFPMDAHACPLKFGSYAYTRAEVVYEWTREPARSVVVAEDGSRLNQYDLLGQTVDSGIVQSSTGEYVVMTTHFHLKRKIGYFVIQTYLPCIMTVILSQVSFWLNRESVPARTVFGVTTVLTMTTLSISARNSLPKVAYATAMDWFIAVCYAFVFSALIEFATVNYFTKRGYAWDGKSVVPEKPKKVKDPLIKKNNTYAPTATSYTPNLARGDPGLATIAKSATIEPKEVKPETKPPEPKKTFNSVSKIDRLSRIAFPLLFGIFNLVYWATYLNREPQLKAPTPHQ
Chain of Angiotensin-converting enzyme (P12821 whole entry): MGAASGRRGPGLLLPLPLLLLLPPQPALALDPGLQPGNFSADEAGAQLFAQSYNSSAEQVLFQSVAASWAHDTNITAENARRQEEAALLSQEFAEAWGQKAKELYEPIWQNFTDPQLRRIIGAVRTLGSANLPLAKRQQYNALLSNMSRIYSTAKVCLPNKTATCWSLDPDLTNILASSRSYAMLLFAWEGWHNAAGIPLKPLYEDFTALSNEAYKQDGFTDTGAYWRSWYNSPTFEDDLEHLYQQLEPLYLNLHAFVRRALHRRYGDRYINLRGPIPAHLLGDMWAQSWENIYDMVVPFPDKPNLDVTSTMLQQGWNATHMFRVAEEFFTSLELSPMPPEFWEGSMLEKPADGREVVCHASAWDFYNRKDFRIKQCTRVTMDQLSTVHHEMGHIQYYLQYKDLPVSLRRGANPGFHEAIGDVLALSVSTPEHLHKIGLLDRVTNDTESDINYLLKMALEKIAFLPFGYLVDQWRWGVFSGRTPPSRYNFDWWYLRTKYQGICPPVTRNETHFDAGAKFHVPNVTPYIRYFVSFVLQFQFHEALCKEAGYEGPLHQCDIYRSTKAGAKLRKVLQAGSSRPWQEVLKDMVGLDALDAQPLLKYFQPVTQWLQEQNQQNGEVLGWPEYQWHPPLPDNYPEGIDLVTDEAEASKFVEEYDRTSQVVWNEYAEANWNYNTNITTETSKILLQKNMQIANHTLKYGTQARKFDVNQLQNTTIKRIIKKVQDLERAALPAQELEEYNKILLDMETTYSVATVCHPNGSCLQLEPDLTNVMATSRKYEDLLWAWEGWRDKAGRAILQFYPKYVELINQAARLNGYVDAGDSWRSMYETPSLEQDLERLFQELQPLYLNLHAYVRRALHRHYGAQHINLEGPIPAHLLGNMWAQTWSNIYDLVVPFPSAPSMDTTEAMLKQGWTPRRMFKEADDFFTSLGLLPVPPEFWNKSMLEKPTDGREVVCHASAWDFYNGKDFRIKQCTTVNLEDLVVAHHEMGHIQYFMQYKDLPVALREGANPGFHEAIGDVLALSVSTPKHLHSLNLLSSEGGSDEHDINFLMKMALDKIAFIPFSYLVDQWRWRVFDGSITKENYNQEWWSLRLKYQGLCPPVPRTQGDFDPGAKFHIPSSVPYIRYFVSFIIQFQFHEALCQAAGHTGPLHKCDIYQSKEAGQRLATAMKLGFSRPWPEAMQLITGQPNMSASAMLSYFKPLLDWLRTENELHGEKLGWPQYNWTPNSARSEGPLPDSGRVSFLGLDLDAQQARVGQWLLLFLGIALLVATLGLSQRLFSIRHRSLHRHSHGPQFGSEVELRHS
Chain of cAMP-specific 3',5'-cyclic phosphodiesterase 4D (Q08499 whole entry): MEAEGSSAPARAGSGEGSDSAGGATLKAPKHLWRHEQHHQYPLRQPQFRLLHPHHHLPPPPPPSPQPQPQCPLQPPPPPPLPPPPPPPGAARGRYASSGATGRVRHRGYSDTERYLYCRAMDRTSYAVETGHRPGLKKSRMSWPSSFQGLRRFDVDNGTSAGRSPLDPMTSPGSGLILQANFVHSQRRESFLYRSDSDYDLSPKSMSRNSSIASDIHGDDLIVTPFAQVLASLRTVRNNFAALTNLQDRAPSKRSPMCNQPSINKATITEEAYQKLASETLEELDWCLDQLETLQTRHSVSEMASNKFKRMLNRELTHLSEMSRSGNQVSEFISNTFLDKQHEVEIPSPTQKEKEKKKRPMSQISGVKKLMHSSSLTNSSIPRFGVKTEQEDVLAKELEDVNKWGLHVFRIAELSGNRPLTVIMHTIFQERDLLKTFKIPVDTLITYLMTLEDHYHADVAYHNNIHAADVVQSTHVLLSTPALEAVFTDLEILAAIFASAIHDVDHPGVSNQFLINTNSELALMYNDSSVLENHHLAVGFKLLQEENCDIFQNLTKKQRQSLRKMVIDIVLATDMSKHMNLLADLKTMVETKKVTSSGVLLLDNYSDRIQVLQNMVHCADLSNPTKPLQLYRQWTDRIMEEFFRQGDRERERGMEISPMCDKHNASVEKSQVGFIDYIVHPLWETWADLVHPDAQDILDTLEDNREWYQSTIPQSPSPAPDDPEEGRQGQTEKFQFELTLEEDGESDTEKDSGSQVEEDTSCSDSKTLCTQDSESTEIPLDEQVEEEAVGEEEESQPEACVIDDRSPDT
Chain of Glucocorticoid receptor (P06537 as listed by the source): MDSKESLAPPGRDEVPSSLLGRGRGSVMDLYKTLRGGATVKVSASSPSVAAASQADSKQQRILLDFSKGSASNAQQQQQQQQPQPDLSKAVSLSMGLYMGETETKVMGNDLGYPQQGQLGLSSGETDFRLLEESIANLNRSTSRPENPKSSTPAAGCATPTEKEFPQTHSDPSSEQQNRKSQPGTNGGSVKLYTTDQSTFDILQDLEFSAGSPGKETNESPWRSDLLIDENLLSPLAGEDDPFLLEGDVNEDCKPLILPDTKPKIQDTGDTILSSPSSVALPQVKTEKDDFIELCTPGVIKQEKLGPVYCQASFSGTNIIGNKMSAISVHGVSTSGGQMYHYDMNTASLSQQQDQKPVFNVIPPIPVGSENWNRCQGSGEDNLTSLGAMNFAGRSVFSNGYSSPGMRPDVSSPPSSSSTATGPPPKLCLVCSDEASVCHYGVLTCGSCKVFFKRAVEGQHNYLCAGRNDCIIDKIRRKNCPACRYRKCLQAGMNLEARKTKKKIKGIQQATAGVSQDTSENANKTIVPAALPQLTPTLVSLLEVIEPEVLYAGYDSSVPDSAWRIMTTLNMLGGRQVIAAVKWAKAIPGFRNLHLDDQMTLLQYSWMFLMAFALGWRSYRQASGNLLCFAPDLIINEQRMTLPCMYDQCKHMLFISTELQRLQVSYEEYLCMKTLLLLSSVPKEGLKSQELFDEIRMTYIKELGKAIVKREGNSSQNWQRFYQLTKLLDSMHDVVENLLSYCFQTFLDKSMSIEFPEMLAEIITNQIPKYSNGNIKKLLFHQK
Chain of Phosphodiesterase 3a (C7DXW3 whole entry): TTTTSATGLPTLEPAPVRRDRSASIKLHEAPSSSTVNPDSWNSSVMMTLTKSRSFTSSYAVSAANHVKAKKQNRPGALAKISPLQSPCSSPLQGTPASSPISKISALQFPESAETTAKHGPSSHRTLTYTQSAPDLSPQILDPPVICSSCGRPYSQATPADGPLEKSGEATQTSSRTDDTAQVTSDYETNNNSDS
Chain of Gamma-aminobutyric acid (GABA) B receptor 1 (Q6MFX8 whole entry): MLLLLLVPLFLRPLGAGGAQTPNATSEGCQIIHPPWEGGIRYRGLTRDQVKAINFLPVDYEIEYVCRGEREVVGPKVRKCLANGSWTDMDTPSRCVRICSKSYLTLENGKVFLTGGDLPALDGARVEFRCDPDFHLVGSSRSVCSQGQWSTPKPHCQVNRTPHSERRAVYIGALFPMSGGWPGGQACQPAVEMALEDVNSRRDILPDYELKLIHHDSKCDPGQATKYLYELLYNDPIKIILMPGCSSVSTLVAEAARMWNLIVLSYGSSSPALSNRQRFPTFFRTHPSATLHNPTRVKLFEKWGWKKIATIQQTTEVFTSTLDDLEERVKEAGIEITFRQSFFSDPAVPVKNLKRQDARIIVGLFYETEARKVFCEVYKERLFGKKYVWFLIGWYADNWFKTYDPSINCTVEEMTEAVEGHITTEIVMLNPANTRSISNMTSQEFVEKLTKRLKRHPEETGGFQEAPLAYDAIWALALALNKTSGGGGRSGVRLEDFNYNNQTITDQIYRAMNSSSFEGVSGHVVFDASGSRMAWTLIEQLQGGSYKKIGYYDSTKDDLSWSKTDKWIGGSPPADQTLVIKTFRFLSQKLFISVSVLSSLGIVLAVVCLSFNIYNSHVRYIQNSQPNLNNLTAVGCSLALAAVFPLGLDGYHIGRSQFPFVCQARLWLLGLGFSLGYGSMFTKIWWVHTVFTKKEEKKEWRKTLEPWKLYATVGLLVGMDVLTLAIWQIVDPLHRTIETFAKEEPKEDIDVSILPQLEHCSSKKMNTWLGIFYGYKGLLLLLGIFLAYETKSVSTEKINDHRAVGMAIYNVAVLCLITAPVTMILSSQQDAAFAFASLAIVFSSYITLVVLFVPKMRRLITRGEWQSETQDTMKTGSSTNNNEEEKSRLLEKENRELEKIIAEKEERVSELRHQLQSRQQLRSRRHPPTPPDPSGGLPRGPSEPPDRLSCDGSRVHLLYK

O/N=C/Nc1ccc(N2CCOCC2)c(Cl)c1 [N'-(3-Chloro-4-morpholinophenyl)-N-hydroxyformamidine]
> 10 µM: all assays above

Source: BindingDB's records for doi:10.1124/jpet.105.083964 (Taisho Pharmaceutical, 2005)
